Drawing on ChEMBL document CHEMBL4823291, “Discovery of 5,6,7,8-tetrahydropyrido[3,4-d]pyrimidine derivatives as novel selective Axl inhibitors” (Bioorg Med Chem Lett, 2021), this text covers IC50 and Ratio IC50 for 6 compounds.

Test [1] concerns the target T1, Tyrosine-protein kinase Mer (Homo sapiens, UniProt Q12866).
T1 sequence (Q12866 whole entry): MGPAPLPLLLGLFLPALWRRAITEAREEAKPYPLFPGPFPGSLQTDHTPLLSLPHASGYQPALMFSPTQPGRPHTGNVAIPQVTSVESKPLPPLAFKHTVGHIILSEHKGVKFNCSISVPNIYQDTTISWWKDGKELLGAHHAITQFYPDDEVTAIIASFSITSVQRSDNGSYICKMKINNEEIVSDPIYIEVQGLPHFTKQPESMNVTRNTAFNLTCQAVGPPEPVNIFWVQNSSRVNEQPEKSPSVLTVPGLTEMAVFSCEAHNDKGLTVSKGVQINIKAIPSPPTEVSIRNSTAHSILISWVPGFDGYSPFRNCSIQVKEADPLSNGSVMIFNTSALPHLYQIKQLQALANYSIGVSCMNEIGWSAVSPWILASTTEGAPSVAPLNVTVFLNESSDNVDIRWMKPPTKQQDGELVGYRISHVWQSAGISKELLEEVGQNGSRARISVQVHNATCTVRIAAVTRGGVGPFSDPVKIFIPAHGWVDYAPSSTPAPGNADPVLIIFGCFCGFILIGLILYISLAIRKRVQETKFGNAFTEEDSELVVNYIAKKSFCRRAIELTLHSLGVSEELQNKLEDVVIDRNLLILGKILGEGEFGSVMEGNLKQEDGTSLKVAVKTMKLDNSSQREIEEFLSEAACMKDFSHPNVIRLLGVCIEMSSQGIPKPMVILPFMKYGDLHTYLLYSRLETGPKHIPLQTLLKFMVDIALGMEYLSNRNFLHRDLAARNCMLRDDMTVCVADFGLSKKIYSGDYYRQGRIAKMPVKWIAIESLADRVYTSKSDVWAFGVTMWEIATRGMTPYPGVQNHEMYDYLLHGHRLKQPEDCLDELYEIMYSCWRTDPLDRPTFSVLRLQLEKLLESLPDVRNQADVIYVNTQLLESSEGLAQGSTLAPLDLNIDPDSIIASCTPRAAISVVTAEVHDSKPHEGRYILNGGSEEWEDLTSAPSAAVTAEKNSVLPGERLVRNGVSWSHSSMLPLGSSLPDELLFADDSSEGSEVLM
The test is described as follows: Inhibition of Mer (unknown origin) by cell free assay.

Test [2] has as its target T2, Tyrosine-protein kinase Mer (Mus musculus, UniProt Q60805).
T2 sequence (Q60805 whole entry): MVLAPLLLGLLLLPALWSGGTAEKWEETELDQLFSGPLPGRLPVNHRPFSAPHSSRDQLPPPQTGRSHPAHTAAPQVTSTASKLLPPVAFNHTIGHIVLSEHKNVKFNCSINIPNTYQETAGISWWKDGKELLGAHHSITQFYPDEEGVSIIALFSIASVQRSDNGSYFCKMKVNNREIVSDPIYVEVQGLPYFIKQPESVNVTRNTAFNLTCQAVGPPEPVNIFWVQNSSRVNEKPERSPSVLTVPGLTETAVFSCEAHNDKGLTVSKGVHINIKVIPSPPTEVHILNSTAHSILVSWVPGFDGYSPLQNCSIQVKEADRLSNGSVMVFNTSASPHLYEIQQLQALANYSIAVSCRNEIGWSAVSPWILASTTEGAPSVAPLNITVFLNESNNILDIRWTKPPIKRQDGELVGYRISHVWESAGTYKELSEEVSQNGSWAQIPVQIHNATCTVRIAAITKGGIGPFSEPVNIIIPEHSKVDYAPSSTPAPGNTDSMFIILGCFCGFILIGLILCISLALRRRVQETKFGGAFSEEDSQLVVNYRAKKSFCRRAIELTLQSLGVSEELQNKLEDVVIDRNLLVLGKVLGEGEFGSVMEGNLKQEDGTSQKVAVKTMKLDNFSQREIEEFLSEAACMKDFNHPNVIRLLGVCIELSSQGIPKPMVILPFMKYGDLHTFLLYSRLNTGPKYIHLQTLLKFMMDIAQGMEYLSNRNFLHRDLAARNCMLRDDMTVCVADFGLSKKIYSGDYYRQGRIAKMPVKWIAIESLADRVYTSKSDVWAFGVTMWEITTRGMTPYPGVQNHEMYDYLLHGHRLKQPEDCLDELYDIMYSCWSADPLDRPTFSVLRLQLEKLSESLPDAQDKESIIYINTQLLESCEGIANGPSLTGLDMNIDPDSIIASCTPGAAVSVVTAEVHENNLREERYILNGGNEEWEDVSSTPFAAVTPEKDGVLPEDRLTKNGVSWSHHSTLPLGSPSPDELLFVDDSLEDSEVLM
The test is described as follows: Inhibition of Mer in mouse BaF3 cells. In kind it is cell-based.

Test [3] concerns the target T3, Tyrosine-protein kinase receptor UFO (Mus musculus, UniProt Q00993).
T3 sequence (Q00993 whole entry): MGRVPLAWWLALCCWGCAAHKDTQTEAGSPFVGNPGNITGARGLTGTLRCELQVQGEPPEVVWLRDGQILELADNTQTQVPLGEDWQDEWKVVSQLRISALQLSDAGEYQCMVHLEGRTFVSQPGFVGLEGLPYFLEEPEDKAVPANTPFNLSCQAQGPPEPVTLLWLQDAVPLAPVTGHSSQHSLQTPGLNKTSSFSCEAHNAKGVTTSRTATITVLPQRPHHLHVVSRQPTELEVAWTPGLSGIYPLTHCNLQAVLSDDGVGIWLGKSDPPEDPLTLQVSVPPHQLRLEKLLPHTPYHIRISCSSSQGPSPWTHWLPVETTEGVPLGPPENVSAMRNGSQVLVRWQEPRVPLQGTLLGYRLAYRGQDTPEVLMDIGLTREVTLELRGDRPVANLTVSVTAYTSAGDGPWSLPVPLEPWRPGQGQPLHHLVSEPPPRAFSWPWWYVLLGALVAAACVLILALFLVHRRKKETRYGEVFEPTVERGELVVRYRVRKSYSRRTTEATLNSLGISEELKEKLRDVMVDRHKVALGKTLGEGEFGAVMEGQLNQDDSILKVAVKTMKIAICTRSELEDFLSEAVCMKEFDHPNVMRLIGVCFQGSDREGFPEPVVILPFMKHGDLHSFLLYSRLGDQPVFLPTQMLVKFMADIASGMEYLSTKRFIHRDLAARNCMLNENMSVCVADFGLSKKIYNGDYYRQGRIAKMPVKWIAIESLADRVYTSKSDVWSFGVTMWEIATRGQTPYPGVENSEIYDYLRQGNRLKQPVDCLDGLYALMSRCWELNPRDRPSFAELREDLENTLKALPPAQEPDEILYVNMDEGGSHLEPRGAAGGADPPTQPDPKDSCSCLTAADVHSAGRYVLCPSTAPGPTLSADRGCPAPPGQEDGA
Nature of the test: Inhibition of Axl in mouse BaF3 cells. The format is cell-based.

A further test has as its system BaF3. The test is described as follows: Ratio of IC50 for Mer in mouse BaF3 cells to IC50 for Axl in mouse BaF3 cells. In kind it is cell-based.
For another test, the species on record is Homo sapiens. Nature of the test: Ratio of IC50 for Mer (unknown origin) to IC50 for Axl (unknown origin).
The target of test [4] is T4, Tyrosine-protein kinase receptor UFO (Homo sapiens, UniProt P30530).
T4 sequence (P30530 whole entry): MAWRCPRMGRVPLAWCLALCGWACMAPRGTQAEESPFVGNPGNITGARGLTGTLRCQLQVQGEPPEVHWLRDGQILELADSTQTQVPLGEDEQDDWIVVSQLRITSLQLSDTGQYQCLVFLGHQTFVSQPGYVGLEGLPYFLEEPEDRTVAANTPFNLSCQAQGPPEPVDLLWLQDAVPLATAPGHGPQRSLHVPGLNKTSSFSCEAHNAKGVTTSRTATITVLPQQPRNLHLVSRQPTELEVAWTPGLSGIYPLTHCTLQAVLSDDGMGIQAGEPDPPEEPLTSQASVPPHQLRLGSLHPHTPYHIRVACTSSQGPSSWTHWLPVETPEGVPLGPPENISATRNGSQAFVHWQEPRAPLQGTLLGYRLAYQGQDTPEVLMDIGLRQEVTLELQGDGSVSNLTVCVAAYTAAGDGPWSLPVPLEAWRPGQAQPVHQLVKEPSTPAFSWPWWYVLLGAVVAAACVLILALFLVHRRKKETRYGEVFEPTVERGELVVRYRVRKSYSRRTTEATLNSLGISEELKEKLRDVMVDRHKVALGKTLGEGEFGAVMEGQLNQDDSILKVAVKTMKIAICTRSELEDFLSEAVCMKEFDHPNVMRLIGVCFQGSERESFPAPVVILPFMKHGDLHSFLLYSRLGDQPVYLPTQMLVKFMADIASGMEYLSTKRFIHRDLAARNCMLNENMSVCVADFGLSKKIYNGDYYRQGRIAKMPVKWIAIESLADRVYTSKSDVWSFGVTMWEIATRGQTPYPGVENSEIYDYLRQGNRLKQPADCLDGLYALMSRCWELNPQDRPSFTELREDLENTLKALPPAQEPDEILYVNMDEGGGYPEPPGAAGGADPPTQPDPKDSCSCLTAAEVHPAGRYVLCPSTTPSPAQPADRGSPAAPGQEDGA
The test is described as follows: Inhibition of Axl (unknown origin) by cell free assay.

Some results are limits rather than exact numbers.

`CN1CCC(CN2CCc3c(ncnc3Oc3ccc(NC(=O)c4cn(CC5CCC5)c(=O)n(-c5ccc(F)cc5)c4=O)cc3F)C2)CC1`: the IC50 (as a rule, the concentration that inhibits the measured activity by half) came out at 0.088 µM in test [1], 0.13 µM in test [2], 0.016 µM in test [3] and 0.0024 µM in test [4]. In addition, the results for the Ratio IC50 in the test on BaF3 and in the test filed under Homo sapiens were 8.1 and 37, respectively.

On to `CC(C)n1cc(C(=O)Nc2ccc(Oc3ncnc4c3CCN(CC3CN(C)C3)C4)c(F)c2)c(=O)n(-c2ccc(F)cc2)c1=O`, for which the IC50 in test [1] is 0.077 µM; in test [2] it was 0.092 µM; in test [3] it was 0.022 µM; in test [4] it was 0.0063 µM. The Ratio IC50 amounted to 4.2 in the test on BaF3 and 12 in the test listed under Homo sapiens.

On to `CC(C)n1cc(C(=O)Nc2ccc(Oc3ncnc4c3CN(C(=O)C3CC3)C4)c(F)c2)c(=O)n(-c2ccc(F)cc2)c1=O`, for which the half-inhibitory concentration (IC50) is below 0.0041 µM in test [1], 0.034 µM in test [2], 0.012 µM in test [3] and 0.0027 µM in test [4]. Moreover, the values for the Ratio IC50 with BaF3 and in the test filed under Homo sapiens were 2.8 and below 1.5, respectively.

With `CC(C)n1cc(C(=O)Nc2ccc(Oc3ncnc4c3CN(C(=O)CN3CCOCC3)C4)c(F)c2)c(=O)n(-c2ccc(F)cc2)c1=O`, the IC50 was determined as 0.23 µM in test [1], 0.73 µM in test [2], 0.27 µM in test [3] and 0.016 µM in test [4]. In addition, the Ratio IC50 in the test on BaF3 was found to be 2.7; in the test filed under Homo sapiens, 14.

On to `CC(C)n1cc(C(=O)Nc2ccc(Oc3ncnc4c3CCN(C3CN(C)C3)C4)c(F)c2)c(=O)n(-c2ccc(F)cc2)c1=O`, for which the IC50 worked out at 0.027 µM in test [1], 0.024 µM in test [2], 0.0053 µM in test [3] and 0.0038 µM in test [4]. The figures for the Ratio IC50 in the test on BaF3 and in the test listed under Homo sapiens were 4.5 and 7.1, respectively.

On to `CC(C)n1cc(C(=O)Nc2ccc(Oc3ncnc4c3CN(CC3CCN(C)CC3)C4)c(F)c2)c(=O)n(-c2ccc(F)cc2)c1=O`, for which the half-maximal inhibitory concentration (IC50) was 0.069 µM in test [1], 0.08 µM in test [2], 0.032 µM in test [3] and 0.0062 µM in test [4]. Further, the Ratio IC50 in the test with BaF3 is 2.5; in the test filed under Homo sapiens, 11.
